Test results taken from patent US8501794B2, “Compounds as cannabinoid receptor ligands” (priority 2007, dated 2013).
Like-named read-outs stand apart in the source and are kept apart here.

Assays:
[1] = molecular target: T1, rat CB2 (Rattus norvegicus, UniProt Q9QZN9); test: rat CB2 radioligand binding assay ([3H]CP-55,940 competition); set-up: expressed in transfected cells; host or cells: HEK293
T1 sequence (Q9QZN9 1-360): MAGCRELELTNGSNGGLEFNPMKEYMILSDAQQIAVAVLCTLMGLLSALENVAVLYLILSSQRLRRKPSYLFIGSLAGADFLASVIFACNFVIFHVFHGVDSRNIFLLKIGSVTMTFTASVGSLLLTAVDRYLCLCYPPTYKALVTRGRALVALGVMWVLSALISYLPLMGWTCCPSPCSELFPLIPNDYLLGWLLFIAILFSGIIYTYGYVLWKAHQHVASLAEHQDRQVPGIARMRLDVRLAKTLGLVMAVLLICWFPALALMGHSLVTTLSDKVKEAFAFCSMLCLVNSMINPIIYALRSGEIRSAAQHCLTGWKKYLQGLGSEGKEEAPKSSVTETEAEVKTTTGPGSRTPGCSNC

[2] = molecular target: T2, human CB2 receptors (Homo sapiens, UniProt P34972); test: human CB2 radioligand binding assay ([3H]CP-55,940 competition)
T2 construct: expressed in transfected cells; host or cells: HEK293
T2 sequence (P34972 whole entry): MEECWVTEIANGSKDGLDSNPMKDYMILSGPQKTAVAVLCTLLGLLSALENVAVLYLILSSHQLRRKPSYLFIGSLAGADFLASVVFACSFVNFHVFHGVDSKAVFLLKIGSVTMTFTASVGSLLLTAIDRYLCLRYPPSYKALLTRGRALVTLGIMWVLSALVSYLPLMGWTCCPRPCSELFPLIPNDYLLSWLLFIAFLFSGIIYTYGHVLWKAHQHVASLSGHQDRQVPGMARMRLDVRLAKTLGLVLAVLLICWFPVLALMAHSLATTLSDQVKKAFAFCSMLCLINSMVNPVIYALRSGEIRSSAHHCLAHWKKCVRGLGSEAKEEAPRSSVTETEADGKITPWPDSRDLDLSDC

[3] = HEK293 membranes, 0.5 nM [3H]CP-55,940, read-out: human CB2 (Ki)

| SMILES | Ki [1] [nM] | Ki [2] [nM] | Ki [2, 3] [nM] | Ki ([1]; HEK293 membranes, 0.5 nM [3H]CP-55,940, read-out: rat CB2 (Ki)) [nM] |
| --- | --- | --- | --- | --- |
| CCCCc1cn(C(C)(C)C)s/c1=N\C(=O)[C@]1(C)CC[C@H](C(=O)N2CCC2)C1(C)C [Example 178, (1R,3S)-3-(azetidin-1-ylcarbonyl)-N-[(5Z)-4-butyl-2-tert-butylisothiazol-5(2H)-ylidene]-1,2,2-trimethylcyclopentanecarboxamide] | 46 | 170 | – | – |
| CCCCc1cn(C(C)(C)C)s/c1=N\C(=O)[C@]1(C)CC[C@H](C(=O)N(C)C)C1(C)C [Example 179, (1R,3S)—N^1-[(5Z)-4-butyl-2-tert-butylisothiazol-5(2H)-ylidene]-N^3,N^3,1,2,2-pentamethylcyclopentane-1,3-dicarboxamide] | 67 | 160 | – | – |
| CCCCc1cn(C(C)(C)C)s/c1=N\C(=O)[C@]1(C)CC[C@H](C(=O)N2CC(O)C2)C1(C)C [Example 180, (1R,3S)—N-[(5Z)-4-butyl-2-tert-butylisothiazol-5(2H)-ylidene]-3-[(3-hydroxyazetidin-1-yl)carbonyl]-1,2,2-trimethylcyclopentanecarboxamide] | 37 | – | 260 | – |
| CCCCc1cn(C(C)(C)C)s/c1=N\C(=O)[C@H]1CC[C@@](C)(C(=O)O)C1(C)C [Example 181, (1R,3S)-3-({[(5Z)-4-butyl-2-tert-butylisothiazol-5(2H)-ylidene]amino}carbonyl)-1,2,2-trimethylcyclopentanecarboxylic acid] | 15 | 160 | – | – |
| CCCCc1cn(C(C)(C)C)s/c1=N\C(=O)[C@H]1CC[C@@](C)(C(=O)NC)C1(C)C [Example 182, (1R,3S)—N-[(5Z)-4-butyl-2-tert-butylisothiazol-5(2H)-ylidene]-N^1,1,2,2-tetramethylcyclopentane-1,3-dicarboxamidetetramethylcyclopentane-1,3-dicarboxamide] | 327 | 350 | – | – |
| CCCCc1cn(C(C)(C)C)s/c1=N\C(=O)[C@H]1CC[C@@](C)(C(=O)N(C)C)C1(C)C [Example 183, (1R,3S)—N^3-[(5Z)-4-butyl-2-tert-butylisothiazol-5(2H)-ylidene]-N^1,N^1,1,2,2-pentamethylcyclopentane-1,3-dicarboxamide] | 40 | – | 210 | – |
| CCCCc1cn(C(C)(C)C)s/c1=N\C(=O)[C@]1(C)CC[C@H](C(=O)N2CC(F)(F)C2)C1(C)C [Example 185, (1R,3S)—N-[(5Z)-4-butyl-2-tert-butylisothiazol-5(2H)-ylidene]-3-[(3,3-difluoroazetidin-1-yl)carbonyl]-1,2,2-trimethylcyclopentanecarboxamide] | 49 | – | 113 | – |
| CCCCc1cn(C(C)(C)C)s/c1=N\C(=O)OCC(C)(C)C [Example 187, Neopentyl (5Z)-4-butyl-2-tert-butylisothiazol-5(2H)-ylidenecarbamate] | 8.2 | 38 | – | – |
| CCCCc1cn(C(C)(C)C)s/c1=N\C(=O)OC12CC3CC(CC(C3)C1)C2 [Example 189, 1-adamantyl (5Z)-4-butyl-2-tert-butylisothiazol-5(2H)-ylidenecarbamate] | 5.3 | 39 | – | – |
| CCCCc1cn(C(C)(C)C)s/c1=N\C(=O)N[C@H](C(=O)NC)C(C)(C)C [Example 190, N^2-({[(5Z)-4-butyl-2-tert-butylisothiazol-5(2H)-ylidene]amino}carbonyl)-N^1,3-dimethyl-L-valinamide] | 2.4 | 2.4 | – | – |
| CCCCc1cn(C(C)(C)C)s/c1=N\C(=O)c1cc(C(F)(F)F)ccc1OC[C@@H]1CCC(=O)N1 [Example 194, N-[(5Z)-4-butyl-2-tert-butylisothiazol-5(2H)-ylidene]-2-{[(2S)-5-oxopyrrolidin-2-yl]methoxy}-5-(trifluoromethyl)benz amide] | 41 | – | 170 | – |
| CC(C)Cc1cn(C(C)(C)C)s/c1=N\C(=O)c1cc(C(F)(F)F)ccc1OC[C@@H]1CCCN1C [Example 197, N-[(5Z)-2-tert-butyl-4-isobutylisothiazol-5(2H)-ylidene]-2-{[(2S)-1-methylpyrrolidin-2-yl]methoxy}-5-(trifluoromethyl)benzamide] | – | – | 260 | 156 |
